Data as given in ChEMBL document CHEMBL4007459, “Design of Potent mRNA Decapping Scavenger Enzyme (DcpS) Inhibitors with Improved Physicochemical Properties To Investigate the Mechanism of Therapeutic Benefit in Spinal Muscular Atrophy (SMA)” (J Med Chem, 2017).
Values after ≈ are worked out from the molar mass of the structure shown.

Assays:
Dihydrofolate reductase = molecular target: T1, Dihydrofolate reductase (Homo sapiens, UniProt P00374); assay: Inhibition of DHFR (unknown origin)
T1 sequence (P00374 whole entry): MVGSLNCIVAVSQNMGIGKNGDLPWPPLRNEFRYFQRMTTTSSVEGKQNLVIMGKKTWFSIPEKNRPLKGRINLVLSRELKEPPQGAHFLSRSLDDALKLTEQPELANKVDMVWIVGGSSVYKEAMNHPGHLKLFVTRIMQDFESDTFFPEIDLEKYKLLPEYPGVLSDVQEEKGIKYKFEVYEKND

[1] = Drug uptake in lymphoblasts (unknown origin) at 10 nM in presence of vacuolar type ATPase inhibitor bafilomycin measured after […]; format: ADME, cell-based; conditions: lymphoblast, 0.01 µM
[2] = Drug uptake in HEK293 cells at 10 nM in presence of vacuolar type ATPase inhibitor concanamycin A measured after […]; format: ADME, cell-based; conditions: human, 0.01 µM
[3] = Drug uptake in HEK293 cells at 10 nM in presence of vacuolar type ATPase inhibitor bafilomycin measured after […]; format: ADME, cell-based; conditions: human, 0.01 µM
[4] = Drug uptake in lymphoblasts (unknown origin) at 10 nM in presence of vacuolar type ATPase inhibitor concanamycin A measured after […]; format: ADME, cell-based; conditions: lymphoblast, 0.01 µM
[5] = Stability in human liver microsomes at 1 uM; format: ADME, microsome; conditions: read-out: Stability
[6] = Lipophilicity, log D of the compound at pH 7.4; format: physicochemical; conditions: buffer
[7] = Apparent intrinsic clearance in human liver microsomes at 1 uM; format: ADME, microsome; conditions: read-out: CLH(app)
[8] = Apparent passive permeability across apical to basolateral side in RRCK2 cells at 2 uM; format: ADME, cell-based, Canis lupus familiaris; conditions: dog, MDCK
[9] = Kinetic solubility of the compound at pH 6.5; conditions: buffer
m7GpppX diphosphatase = molecular target: T2, m7GpppX diphosphatase (Homo sapiens, UniProt Q96C86)
T2 sequence (Q96C86 whole entry): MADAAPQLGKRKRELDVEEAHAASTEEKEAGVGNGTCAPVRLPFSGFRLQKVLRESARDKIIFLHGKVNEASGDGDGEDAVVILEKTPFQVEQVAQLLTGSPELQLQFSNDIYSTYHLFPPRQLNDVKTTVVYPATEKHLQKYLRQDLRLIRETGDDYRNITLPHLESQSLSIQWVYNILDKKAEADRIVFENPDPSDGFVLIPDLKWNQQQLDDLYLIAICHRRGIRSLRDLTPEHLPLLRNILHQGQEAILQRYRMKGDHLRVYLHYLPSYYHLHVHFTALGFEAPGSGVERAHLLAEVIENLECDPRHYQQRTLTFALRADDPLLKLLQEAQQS
Description: Inhibition of human DcpS assessed as increase in SMN2 promoter activity

Plasma = assay: Unbound fraction in FVB/N mouse plasma at 30 mg/kg, ip; format: ADME, organism-based; conditions: in vivo
[10] = Drug uptake in lymphoblasts (unknown origin) at 100 nM in presence of vacuolar type ATPase inhibitor bafilomycin measured after […]; format: ADME, cell-based; conditions: lymphoblast, 0.1 µM
[11] = Drug uptake in lymphoblasts (unknown origin) at 100 nM in presence of vacuolar type ATPase inhibitor concanamycin A measured after […]; format: ADME, cell-based; conditions: lymphoblast, 0.1 µM
[12] = Drug uptake in HEK293 cells at 100 nM in presence of vacuolar type ATPase inhibitor bafilomycin measured after […]; format: ADME, cell-based; conditions: human, 0.1 µM
[13] = Drug uptake in HEK293 cells at 100 nM in presence of vacuolar type ATPase inhibitor concanamycin A measured after […]; format: ADME, cell-based; conditions: human, 0.1 µM

## Nc1nc(N)c2c(COc3ccc(F)cc3F)cccc2n1
Dihydrofolate reductase
  IC50: > 50 µM

## Nc1nc(N)c2c(OCC3CCN(Cc4ccccc4F)CC3)cccc2n1
[1]
  Drug uptake: Not Active
[2]
  Drug uptake: Not Active
[3]
  Drug uptake: Not Active
[4]
  Drug uptake: Not Active

## Nc1nc(N)c2c(COc3ccccc3F)cccc2n1
Dihydrofolate reductase
  IC50: > 30 µM

## Nc1nc(N)c2c(COc3cccc(Cl)c3)cccc2n1
Dihydrofolate reductase
  IC50: 38 µM

## Nc1nc(N)c2c(OCc3cc(F)cc(F)c3)cccc2n1
Dihydrofolate reductase
  IC50: 0.63 µM

## Cc1ncccc1OCc1cccc2nc(N)nc(N)c12
[1]
  Drug uptake: Not Active
[5]
  half-life at 1 µM: > 120 min
[6]
  logD: 1.4
[2]
  Drug uptake: Not Active
[3]
  Drug uptake: Not Active
[7]
  microsomal CLint at 1 µM: < 8 µL/min/mg
Dihydrofolate reductase
  IC50: > 150 µM
[4]
  Drug uptake: Not Active
[8]
  Papp A→B at 2 µM: 18 ×10⁻⁶ cm/s
[9]
  solubility kinetic: 274 µM (≈ 77.1 µg/mL)

## Nc1nc(N)c2c(COc3cccc(F)c3)cccc2n1
Dihydrofolate reductase
  IC50: > 50 µM

## Nc1nc(N)c2c(OCC3CCOCC3)cccc2n1
Dihydrofolate reductase
  IC50: 28 µM

## Nc1nc(N)c2c(OCC3CCN(Cc4c(Cl)cccc4Cl)CC3)cccc2n1
[1]
  Drug uptake: Not Active
[5]
  half-life at 1 µM: 3 min
[6]
  logD: 2.8
[2]
  Drug uptake: Not Active
[3]
  Drug uptake: Not Active
[7]
  microsomal CLint at 1 µM: > 250 µL/min/mg
[4]
  Drug uptake: Not Active
[8]
  Papp A→B at 2 µM: 0.62 ×10⁻⁶ cm/s
[9]
  solubility kinetic: 45 µM (≈ 19.5 µg/mL)

## CC1(COc2cccc3nc(N)nc(N)c23)COC1
Dihydrofolate reductase
  IC50: 15 µM

## Cc1cc(OCC2CCOCC2)c2c(N)nc(N)nc2c1
m7GpppX diphosphatase
  IC50: > 10 µM

## N#Cc1cc(F)cc(OCc2cccc3nc(N)nc(N)c23)c1
[5]
  half-life at 1 µM: > 115 min
[6]
  logD: 1.9
[7]
  microsomal CLint at 1 µM: < 8.4 µL/min/mg
Plasma
  Cp(f): 173 nM
Dihydrofolate reductase
  IC50: 52 µM
[8]
  Papp A→B at 2 µM: 13 ×10⁻⁶ cm/s
[9]
  solubility kinetic: 31 µM (≈ 9.59 µg/mL)

## Nc1nc(N)c2c(OCC3CCN(Cc4c(F)cccc4Cl)CC3)cccc2n1
[1]
  Drug uptake: Not Active
[2]
  Drug uptake: Not Active
[3]
  Drug uptake: Not Active
[4]
  Drug uptake: Not Active

## COC[C@H](C)Oc1cccc2nc(N)nc(N)c12
Dihydrofolate reductase
  IC50: 1.4 µM

## COC[C@@H](C)Oc1cccc2nc(N)nc(N)c12
Dihydrofolate reductase
  IC50: 25 µM

## Cc1cc(COc2cc(F)cc(C#N)c2)c2c(N)nc(N)nc2c1
m7GpppX diphosphatase
  IC50: > 10 µM

## CCN(CC)CCCC(C)Nc1ccnc2cc(Cl)ccc12 (centres undefined) [CHLOROQUINE]
[10]
  Drug uptake: Not Active
[11]
  Drug uptake: Not Active
[12]
  Drug uptake: Not Active
[13]
  Drug uptake: Not Active
